This is an account of results in publication PMC9398908, “GLP-1-mediated delivery of tesaglitazar improves obesity and glucose metabolism in male mice” (Nature Metabolism, 2022).

SMILES strings stand for the structures. Where “and” joins values, the source holds several entries; their conditions need not be identical. Identical values can stand only once.

The target in experiment [1] is T1, PPARγ2/RXR (Homo sapiens, UniProt P37231).
T1 construct: host or cells: HEK293T, with (A8) or without (A9) co-expressed hGLP-1R
T1 sequence (P37231 1-505): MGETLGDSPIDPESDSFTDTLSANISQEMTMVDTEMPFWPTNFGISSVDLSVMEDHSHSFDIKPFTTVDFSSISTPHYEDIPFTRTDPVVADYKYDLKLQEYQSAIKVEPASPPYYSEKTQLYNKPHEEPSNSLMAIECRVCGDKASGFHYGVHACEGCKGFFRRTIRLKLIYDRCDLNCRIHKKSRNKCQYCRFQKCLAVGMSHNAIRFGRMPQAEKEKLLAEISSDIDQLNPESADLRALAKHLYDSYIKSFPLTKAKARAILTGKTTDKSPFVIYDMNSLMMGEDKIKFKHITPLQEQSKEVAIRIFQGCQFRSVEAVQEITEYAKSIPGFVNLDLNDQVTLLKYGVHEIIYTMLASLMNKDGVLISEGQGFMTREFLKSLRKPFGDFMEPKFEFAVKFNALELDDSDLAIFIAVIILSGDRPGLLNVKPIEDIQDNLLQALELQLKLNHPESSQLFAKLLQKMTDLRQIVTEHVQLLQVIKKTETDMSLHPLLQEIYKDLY
T1 sequence (P19793 1-462 partner): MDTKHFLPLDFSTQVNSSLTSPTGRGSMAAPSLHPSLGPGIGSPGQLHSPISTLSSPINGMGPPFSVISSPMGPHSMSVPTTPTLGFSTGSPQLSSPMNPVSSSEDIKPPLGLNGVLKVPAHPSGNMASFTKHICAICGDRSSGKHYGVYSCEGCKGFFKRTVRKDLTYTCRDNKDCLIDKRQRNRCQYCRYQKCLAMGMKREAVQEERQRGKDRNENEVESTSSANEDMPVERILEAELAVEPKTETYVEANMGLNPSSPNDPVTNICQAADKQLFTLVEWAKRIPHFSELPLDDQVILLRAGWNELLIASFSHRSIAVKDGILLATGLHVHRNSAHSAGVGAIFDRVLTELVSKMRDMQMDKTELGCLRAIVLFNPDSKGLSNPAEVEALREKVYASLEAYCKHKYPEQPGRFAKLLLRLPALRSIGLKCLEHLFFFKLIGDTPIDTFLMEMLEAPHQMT
Kind of experiment: RXR-Rluc8 / PPARγ2-YFP heterodimerization (BRET) in hGLP-1R(−) HEK293T cells. It is filed as cell-based. The note with it: GLP-1R (-), 1μM. As for the experimental part: HEK293T cells (700,000 per well) were seeded in six-well plates and incubated to 70% confluency in DMEM (10% FBS, 1% Pen/Strep). Twenty-four hours following seeding, transient transfections were performed using Lipofectamine 2000 (catalogue no. 11668019, Invitrogen) according to the manufacturer’s protocol without including additional transformation carrier DNA.
Twenty-four hours following transfection, HEK293T cells or MIN6 cells were washed with PBS and resuspended in FluoroBrite phenol red-free complete media (catalogue no. A1896701, Life Technologies) containing 5% FBS and 2 mM of L-glutamine (catalogue no. 25030081, Life Technologies). 100,000 cells per well were plated into poly-D-lysine-coated (catalogue no. P6403, Sigma-Aldrich) 96-well white polystyrene LumiNunc plates (catalogue no. 10072151, Thermo Fisher Scientific). After 24 h, the media was replaced with PBS (catalogue no. 10010056, Gibco) containing 10 μM of coelenterazine-h (catalogue no. S2011, Promega) or 1:500 dilution of NanoGlo (catalogue no. N1110, Promega). BRET measurements were taken every 30 s–2 min using a PHERAstar FS multi-mode microplate reader. Baseline measurements were taken after an initial 5 min of incubation with coelenterazine-h or NanoGlo-containing PBS after which cells were then treated with either vehicle (PBS) or respective ligands. The resulting ligand-specific ratiometric BRET signals were normalized to vehicle producing the ‘ligand-induced BRET ratio’[37], followed by an additional normalization step to well-specific baseline readings. Ligand-induced measurements on the temporal scale is represented as the subsequent measurement after time point zero. Positive or negative incremental AUC (+iAUC/−iAUC) were calculated where noted. Each experiment was independently performed at least three times, each with at least three technical replicates for each group.
Untagged hGLP-1R was purchased from Sino Biological Inc. (catalogue no. HG13944-UT), hGLP-1R-GFP was a kind gift from D. Hodson (University of Birmingham), and hGLP-1R-Rluc8 was a kind gift from P. Sexton (Monash University, Melbourne, Australia). Gαs recruitment to the GLP-1R-GFP was quantified using mini-Gαs, a protein probe that translocates to ligand-bound Gαs-coupled G-protein coupled receptors. NES-Nluc-MiniGαs was a gift from K. Pfleger (Harry Perkins Institute of Medical Research, Nedlands, Western Australia, Australia). Intracellular cAMP was measured using the YFP-Epac-Rluc CAMYEL sensor[39]. hGLP-1R-RLUC8 internalization was quantified using the intracellular plasma membrane marker Venus-KRAS[40]. […] GLP-1R-Rluc8 lysosomal colocalization was measured using Lamp1-mNeonGreen. […] Time-dependent RXR/PPARγ heterodimerization was measured using RXR-Rluc8 and PPARγ2-YFP, both of which were kind gifts from V. Ollendorf[41].

Experiment [2] deals with db/db mice. Kind of experiment: 4-day treatment of obese db/db mice (50 nmol/kg/day): body weight, food intake, glucose, tolerance test (Fig. 6). The experiment is classed as in vivo, mouse. Set-up: blood glucose (legend: change in blood glucose) / AOC: unit not given here. The note with it: 4 days, 50 nmol kg−1 per day, individual mice. As for the experimental part: Glp1r^−/− mice were kindly provided by D. Drucker (University of Toronto, Canada). All wildtype and knockout mice used in our studies were in-house bred on a C57BL/6J background. Mice were double-housed and kept in a constant environment with the ambient temperature set to 22 ± 2 °C with constant humidity (45–65%) and a 12 h/12 h light/dark cycle with lights off from 06:00 until 18:00. For studies in DIO mice, male C57BL/6J mice were fed with a high-fat diet comprising 58% kilocalories from fat (D12331, Research Diets). db/db mice were fed with a normal chow diet (T1314, Altromin GmbH) throughout the study. At the beginning of each experiment, mice were equally distributed into experimental groups according to their body weight and body composition. All animal studies were approved by the State of Bavaria, Germany, or the Insitutional Animal Care and Use Committee of the University of Cincinnati, OH, USA and conducted on the basis of the underlying animal welfare law of the respective countries. Compounds were dissolved in PBS and were s.c. administered with a volume of 5 μl g^−1 body weight in the indicated doses between 15:00 and 16:00.
Glucose tolerance was assessed in 6 h fasted mice after i.p injection of 1.75 g glucose per kg body weight (DIO mice). Insulin tolerance was assessed in 6 h fasted mice after i.p. injection of either 0.75 U Insulin per […] body weight (DIO mice) or 1 U Insulin per […] body weight (db/db mice) (Humalog, Eli Lilly). Tail vein blood glucose was subsequently measured using a handheld glucometer (TheraSense Freestyle) at baseline and after 15, 30, 60 and 120 min.

Turning to `CCO[C@@H](Cc1ccc(OCCc2ccc(OS(C)(=O)=O)cc2)cc1)C(=O)O` [tesaglitazar, (S)-2-ethoxy-3-(4-(4-((methylsulfonyl)oxy)phenethoxy)phenyl) propanoic acid], the “RXR/PPARγ Heterodimerization (AUC), +iAUC” value in experiment [1] (replicate 1) is 59.69; in experiment [1] (replicate 2) it was 107.20; in experiment [1] (replicate 3) it was 71.87; in experiment [1] (replicate 4) it was 114.00. Moreover, in experiment [2] (Fig. 6c), the “blood glucose (plasma glucose)” value was 482 and 462 and 314 and 500 and 452 and 446. Moreover, the AOC in experiment [2] (Fig. 6f, baseline-corrected) is 9 and 124.5 and 63.27 and 252.8 and 257.2 and 64. Further, the “blood glucose (legend: change in blood glucose)” value in experiment [2] (Fig. 6d) was 33 and 120 and -49 and 69 and 52 and 7.
